The target in data set [1] is T1, Recombinant human p38α (Homo sapiens, UniProt Q16539).
T1 construct: GST; made in house
In words: Time-resolved fluorescence resonance energy transfer (TR-FRET) kinase assay (standard or low volume). Format: biochemical. The procedure:
[…] To activate this protein, 3 μM unactivated p38α was incubated in 200 mM Hepes pH 7.4, 625 mM NaCl, 1 mM DTT with 27 nM active MKK6 (Upstate), 1 mM ATP and 10 mM MgCl2 The activity of the MKK6-activated p38α was assessed using a time-resolved fluorescence resonance energy transfer (TR-FRET) assay. Biotinylated-GST-ATF2 (residues 19-96, 400 nM final), ATP ([…]) and MgCl2 (5 mM final) in assay buffer (40 mM HEPES pH 7.4, 1 mM DTT) were added to wells containing 1 ul of various concentrations of compound or DMSO vehicle (3% final) in NUNC 384 well black plate. The reaction was initiated by the addition of MKK6-activated p38 (100 pM final) to give a total volume of 30 ul. The reaction was incubated for 120 minutes at room temperature, then terminated by the addition of 15 μl of 100 mM EDTA pH 7.4. Detection reagent (15 μl) in buffer (100 mM HEPES pH 7.4, 150 mM NaCl, 0.1% w/v BSA, 1 mM DTT) containing antiphosphothreonine-ATF2-71 polyclonal antibody (Cell Signalling Technology, Beverly Mass., USA) labelled with W-1024 europium chelate (Wallac OY, Turku, Finland), and APC-labelled streptavidin (Prozyme, San Leandro, Calif., USA) was added and the reaction was further incubated for 60 minutes at room temperature. The degree of phosphorylation of GST-ATF2 was measured using a Packard Discovery plate reader (Perkin-Elmer Life Sciences, Pangbourne, UK) as a ratio of specific 665 nm energy transfer signal to reference europium 620 nm signal.
[…] To activate this protein, 3 μM unactivated p38α was incubated in 200 mM Hepes pH7.4, 625 mM NaCl, 1 mM DTT with 27 nM active MKK6 (Upstate), 1 mM ATP and 10 mM MgCl2 The activity of the MKK6-activated p38α was assessed using a time-resolved fluorescence resonance energy transfer (TR-FRET) assay. Biotinylated-GST-ATF2 (residues 19-96, 400 nM final), ATP (125 μM final) and MgCl2 (5 mM final) in assay buffer (40 mM HEPES pH 7.4, 1 mM DTT) were added to wells containing 0.1 μl of various concentrations of compound or DMSO vehicle (1.7% final) in Greiner low volume 384 well black plate. The reaction was initiated by the addition of MKK6-activated p38α (100 pM final) to give a total volume of 6 μl. The reaction was incubated for 120 minutes at room temperature, then terminated by the addition of 3 μl of detection reagent in buffer (100 mM HEPES pH 7.4, 150 mM NaCl, 0.1% w/v BSA, 1 mM DTT, 100 mM EDTA) containing antiphosphothreonine-ATF2-71 polyclonal antibody (Cell Signalling Technology, Beverly Mass., USA) labelled with W-1024 europium chelate (Wallac OY, Turku, Finland), and APC-labelled streptavidin (Prozyme, San Leandro, Calif., USA). The reaction was further incubated for 60 minutes at room temperature. The degree of phosphorylation of GST-ATF2 was measured using a BMG Rubystar plate reader (BMG, UK) as a ratio of specific 665 nm energy transfer signal to reference europium 620 nm signal. It is noted that there are two assay formats shown above for the Time-resolved fluorescence resonance energy transfer kinase assay. The only difference between these two assays is the volume used and the plate type. […] The results described herein may have been performed in either assay format and are not differentiated as to which.
A general note: Time-resolved FRET reads energy transfer from a long-lived donor to a nearby acceptor.

Data set [2] addresses T1, Recombinant human p38α. In words: Fluorescence anisotropy kinase binding assay (standard or low volume). The conditions noted are these: for IC50: bound, read-out: apparent pIC50 (converted); for active in the assay (pIC50, p38α binding): 12 nM p38α, 5 nM fluorescent ligand. The procedure, abridged:
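Activated GST-tagged recombinant human p38α (pre-activated with MBP-MKK6 DD) at 12 nM final with 5 nM rhodamine green-labelled pyridinylimidazole tracer in pH 7.5 HEPES/CHAPS/DTT/MgCl2 buffer. Test compound 0.28 nM–16.6 μM or 0.02 nM–25 μM final, 3% or 1.7% DMSO; 30–60 min at room temperature. Fluorescence anisotropy read (ex 485/em 535 nm) for Ki.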
(In general: In fluorescence polarisation assays a small probe gives low polarisation when free and higher when bound to something large.)

The test system of data set [3] is IL-8 production by human neutrophils. In words: TNF-stimulated IL-8 production from human neutrophils. The conditions noted are these: Neutrophil. Format: cell-based.
Method: TNF-Stimulated IL-8 Production from Human Neutrophils The effect of test compounds on TNF-stimulated IL8 production by human neutrophils is measured as follows. Neutrophils are prepared from blood obtained from consenting donors, using standard methods. Blood is collected in heparinized syringes and layered over histopaque (30 ml/20 ml). Following centrifugation, the red cell pellet is resuspended in PBS and purified over a dextran gradient. Red blood cells are lysed with water for 40 sec, remaining granulocytes collected by centrifugation and resuspended at 1.5×10̂6 cells/ml. Cells are added (0.5-1 ml) to 48 well plates already containing compound at 1000×final concentration in neat DMSO or 10% DMSO in RPMI1640 with 10% FBS. TNF (final concentration 100 ng/ml) is used as the stimulus. Cells incubated for approximately 20 hrs at 37° C., 5% CO2. Levels of IL-8 in the cell free supernatant are determined by sandwich ELISA, and inhibition relative to a control with DMPO but no compound is calculated.
In data set [4] the test system is IL-6, IL-8, GM-CSF, RANTES and COX-2 synthesis. To be noted: a number of different cell types; cited from earlier work.
Data set [5] concerns TGF-β-induced fibronectin and thrombospondin. The conditions noted are these: Laping et al., 2002; cited from earlier work.
Another data set has as its system TNFalpha. In words: LPS-stimulated cytokine production in human whole blood. Format: cell-based. To be noted: LPS-stimulated TNF-alpha, bound, read-out: IC50.
Where [6] appears, read: second end given as 'less than', read-out: pIC50, broad range of data upon multiple runs (converted).
[7] abbreviates: bound, not more than 50% inhibition at 100 nM, read-out: IC50.
Setting [8] is: bound, read-out: pIC50 (converted).

For orientation: melting point means the temperature of the solid-liquid transition.

Counter-ions that a name gives are not always drawn. Like-named read-outs stand apart in the source and are kept apart here. Some results are limits rather than exact numbers.

T1 sequence (Q16539 whole entry): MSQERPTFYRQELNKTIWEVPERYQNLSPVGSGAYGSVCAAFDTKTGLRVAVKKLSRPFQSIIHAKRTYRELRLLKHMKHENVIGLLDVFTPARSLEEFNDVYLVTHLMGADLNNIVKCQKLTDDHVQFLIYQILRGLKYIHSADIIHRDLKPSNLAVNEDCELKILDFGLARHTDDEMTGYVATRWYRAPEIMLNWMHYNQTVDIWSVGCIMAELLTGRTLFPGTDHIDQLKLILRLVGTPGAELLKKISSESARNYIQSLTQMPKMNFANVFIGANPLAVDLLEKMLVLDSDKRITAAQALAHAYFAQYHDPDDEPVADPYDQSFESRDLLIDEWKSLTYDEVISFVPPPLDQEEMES
Method for TNFalpha: Assay: Test compound concentrations were prepared at 10× concentrations and LPS prepared at 1 ug/ml (final conc. of 50 ng/ml LPS) and added in 50 uL volumes to 1.5 mL eppendorf tubes. Heparinized human whole blood was obtained from healthy volunteers and was dispensed into eppendorf tubes or multiwell plates containing compounds and LPS in 0.2-0.4 mL volumes and the tubes incubated at 37 C. In some studies, compound was incubated with blood for up to 30 min prior to addition of LPS. Following a 4 hour incubation, the tubes or plates were centrifuged to remove cells and plasma was withdrawn and frozen at −80 C. Cytokine measurement: IL-1beta and/or TNFalpha were quantified using a standardized ELISA, or similar technology. Concentrations of IL-1beta or TNFalpha were determined from standard curves of the appropriate cytokine and IC50 values for test compound (concentration that inhibited 50% of LPS-stimulated cytokine production) were calculated by linear regression analysis.

For the compound `Cc1ccc(C(=O)NCc2ccccc2)cc1-c1nc(NCCN(C)C)nc2c1CNC(=O)N2c1c(F)cccc1F` [Example 18, 3-(8-(2,6-Difluorophenyl)-2-{[2-(dimethylamino)ethyl]amino}-7-oxo-5,6,7,8-tetrahydropyrimido[4,5-d]pyrimidin-4-yl)-4-methyl-N-(phenylmethyl)benzamide], the melting point lay within 148 to 150 °C. The IC50 on Recombinant human p38α [1] (setting [6]) is at least 7.94 nM.

With `CNC(=O)c1ccc(-c2nc(NCCN(C)C)nc3c2CNC(=O)N3c2c(F)cccc2F)cc1` [Example 102, 4-(8-(2,6-difluorophenyl)-2-{[2-(dimethylamino)ethyl]amino}-7-oxo-5,6,7,8-tetrahydropyrimido[4,5-d]pyrimidin-4-yl)-N-methylbenzamide trifluoroacetate], the IC50 on Recombinant human p38α [2] is above 15800 nM; on Recombinant human p38α [1] (setting [6]), at least 158 nM.

Regarding `Cc1cc(C(=O)NC(C)C)ccc1-c1nc(NCCN(C)C)nc2c1CNC(=O)N2c1c(F)cccc1F` [104(c), 4-(8-(2,6-difluorophenyl)-2-{[2-(dimethylamino)ethyl]amino}-7-oxo-5,6,7,8-tetrahydropyrimido[4,5-d]pyrimidin-4-yl)-3-methyl-N-(1-methylethyl)benzamide trifluoroacetate], the IC50 was above 15800 nM on Recombinant human p38α [2], at least 158 nM on Recombinant human p38α [1] (setting [6]) and above 100 nM in data set [3] (setting [7]).

Turning to `Cc1ccc(C(=O)NC2CCC2)cc1-c1nc(N2CCC(N)CC2)nc2c1CNC(=O)N2c1c(F)cccc1F` [1(g), 3-[2-(4-Amino-1-piperidinyl)-8-(2,6-difluorophenyl)-7-oxo-5,6,7,8-tetrahydropyrimido[4,5-d]pyrimidin-4-yl]-N-cyclobutyl-4-methylbenzamide], the “active in the assay (pIC50, p38α binding)” value (shortened to “active in the assay”) on Recombinant human p38α [2] is listed as “active”. Moreover, the IC50 at Recombinant human p38α [1] (setting [6]) is at least 7.94 nM; in data set [3] (ends given as 'less than' / 'greater than', read-out: IC50, broad range of data upon multiple runs), 40 to 100 nM.

Consider `CC(C)NC(=O)c1ccc(-c2nc(NCCN(C)C)nc3c2CNC(=O)N3c2c(F)cccc2F)cc1` [Example 97, 4-(8-(2,6-difluorophenyl)-2-{[2-(dimethylamino)ethyl]amino}-7-oxo-5,6,7,8-tetrahydropyrimido[4,5-d]pyrimidin-4-yl)-N-(1-methylethyl)benzamide trifluoroacetate], for which the IC50 on Recombinant human p38α [2] is above 15800 nM; on Recombinant human p38α [1] (setting [6]), at least 158 nM.

Turning to `Cc1cc(C(=O)N(C)C)ccc1-c1nc(NCCN(C)C)nc2c1CNC(=O)N2c1c(F)cccc1F` [Example 108, 4-(8-(2,6-difluorophenyl)-2-{[2-(dimethylamino)ethyl]amino}-7-oxo-5,6,7,8-tetrahydropyrimido[4,5-d]pyrimidin-4-yl)-N,N,3-trimethylbenzamide trifluoroacetate], the results for the IC50 (on Recombinant human p38α [2]; on Recombinant human p38α [1] (setting [6]); in data set [3] (setting [7])) were above 15800 nM, at least 158 nM and above 100 nM, respectively.

Consider `Cc1cc(C(N)=O)ccc1-c1nc(NCCN(C)C)nc2c1CNC(=O)N2c1c(F)cccc1F` [Example 110, 4-(8-(2,6-difluorophenyl)-2-{[2-(dimethylamino)ethyl]amino}-7-oxo-5,6,7,8-tetrahydropyrimido[4,5-d]pyrimidin-4-yl)-3-methylbenzamide trifluoroacetate], for which the IC50 at Recombinant human p38α [2] is above 15800 nM; at Recombinant human p38α [1] (setting [8]), above 1580 nM; in data set [3] (setting [7]), above 100 nM.

For `C[S+]([O-])c1ccc(-c2nc(-c3ccncc3)c(-c3ccc(F)cc3)[nH]2)cc1` (stereo not drawn) [SB-203580], the “decreasing the synthesis of pro-inflammatory proteins including IL-6, IL-8, GM-CSF, RANTES and COX-2” value in data set [4] is listed as “effective”.

On to `COc1nccc(-c2c(-c3ccc(F)cc3)ncn2C2CCNCC2)n1` [SB-242235], for which the “effect on TGF-β-induced increases in fibronectin and thrombospondin” value in data set [5] is recorded as “inhibited”.

On to `CCCNC(=O)c1ccc(-c2nc(NCCN(C)C)nc3c2CNC(=O)N3c2c(F)cccc2F)c(C)c1` [Example 105, 4-(8-(2,6-difluorophenyl)-2-{[2-(dimethylamino)ethyl]amino}-7-oxo-5,6,7,8-tetrahydropyrimido[4,5-d]pyrimidin-4-yl)-3-methyl-N-propylbenzamide trifluoroacetate], for which the values for the IC50 (at Recombinant human p38α [2]; on Recombinant human p38α [1] (setting [8]); in data set [3] (setting [7])) were above 15800 nM, above 1580 nM and above 100 nM, respectively.

Regarding `Fc1ccc(-c2nc3n(c2-c2ccncc2)CCS3)cc1` [SK&F 86002], in data set [4], the “decreasing the synthesis of pro-inflammatory proteins including IL-6, IL-8, GM-CSF, RANTES and COX-2” value was “effective”.

Turning to `Cc1cc(C(=O)Nc2ccccc2)ccc1-c1nc(NCCN(C)C)nc2c1CNC(=O)N2c1c(F)cccc1F` [Example 106, 4-(8-(2,6-difluorophenyl)-2-{[2-(dimethylamino)ethyl]amino}-7-oxo-5,6,7,8-tetrahydropyrimido[4,5-l]pyrimidin-4-yl)-3-methyl-N-phenylbenzamide trifluoroacetate], the values for the IC50 (at Recombinant human p38α [2]; on Recombinant human p38α [1] (setting [6]); in data set [3] (setting [7])) were above 15800 nM, at least 158 nM and above 100 nM, respectively.

On to `Cc1cc(C(=O)Nc2ccc(F)cc2)ccc1-c1nc(NCCN(C)C)nc2c1CNC(=O)N2c1c(F)cccc1F` [Example 107, 4-(8-(2,6-difluorophenyl)-2-{[2-(dimethylamino)ethyl]amino}-7-oxo-5,6,7,8-tetrahydropyrimido[4,5-d]pyrimidin-4-yl)-N-(4-fluorophenyl)-3-methylbenzamide trifluoroacetate], for which the results for the IC50 (on Recombinant human p38α [2]; on Recombinant human p38α [1] (setting [8]); in data set [3] (setting [7])) were above 15800 nM, above 1580 nM and above 100 nM, respectively.

`Cc1ccc(C(=O)Nc2ccc(C)c(-c3nc(NC4CCNCC4)nc4c3CNC(=O)N4c3c(F)cccc3F)c2)cc1F` [Example 27(b), N-{3-[8-(2,6-difluorophenyl)-7-oxo-2-(4-piperidinylamino)-5,6,7,8-tetrahydropyrimido[4,5-d]pyrimidin-4-yl]-4-methylphenyl}-3-fluoro-4-methylbenzamide] gave a melting point of 218 to 223.5 °C. The “active in the assay” value on Recombinant human p38α [2] is given as “active”. Besides, the IC50 at Recombinant human p38α [1] (setting [8]) was above 15800 nM.

In the case of `Cc1ccc(C(=O)O)cc1-c1nc(NCCN(C)C)nc2c1CNC(=O)N2c1c(F)cccc1F` [Example 117, 3-(8-(2,6-difluorophenyl)-2-{[2-(dimethylamino)ethyl]amino}-7-oxo-5,6,7,8-tetrahydropyrimido[4,5-d]pyrimidin-4-yl)-4-methylbenzoic acid], the figures for the IC50 in the data set on TNFalpha and at Recombinant human p38α [1] (setting [6]) were above 1000 nM and at least 158 nM, respectively. In addition, on Recombinant human p38α [2], the “active in the assay” value is “active”.

The values above are taken from patent US20090239846A1, “Novel Compounds” (Glaxo Group Limited, priority 2005, published 2009).
